The record followed here is patent US20250100996A1, “HETEROCYCLOALKYL AND HETEROARYL COMPOUNDS AND PHARMACEUTICAL COMPOSITIONS THAT MODULATE IKZF2” (Plexium, Inc., priority 2021, published 2025).

The structures appear in SMILES notation.

Assay [1] concerns the target T1, IKZF2 (Helios) (Homo sapiens, UniProt Q9UKS7).
T1 construct: Leu-Asp junction (codons ctcgac before the linker); mScarlet (behind P2A) (C, cleaved yes); expressed in transfected cells
In words: IKZF2 reporter degradation assay (HEK 293T IKZF2-mNeonGreen reporter cell line). The assay is classed as cell-based. Conditions: HEK 293T IKZF2-mNeonGreen reporter, 24 hours incubation. A digest of the protocol: (§1)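 Stable clonal HEK 293T lines express each IKZF-mNeonGreen-P2A-mScarlet fusion. Cells were seeded, attached overnight, then given compound (≤0.5% DMSO, quadruplicate) for 24 h at 37° C. Imaged for percent mNeonGreen-positive cells, segmented on mScarlet. DC50 from four-parameter logistic fit.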

Assay [2] deals with T2, IKZF2 (Helios) (Homo sapiens, UniProt Q96SW2+Q9UKS7).
T2 construct: Leu-Asp junction (codons ctcgac before the linker); mScarlet (behind P2A) (C, cleaved yes); expressed in transfected cells
T2 sequence (Q9UKS7 whole entry): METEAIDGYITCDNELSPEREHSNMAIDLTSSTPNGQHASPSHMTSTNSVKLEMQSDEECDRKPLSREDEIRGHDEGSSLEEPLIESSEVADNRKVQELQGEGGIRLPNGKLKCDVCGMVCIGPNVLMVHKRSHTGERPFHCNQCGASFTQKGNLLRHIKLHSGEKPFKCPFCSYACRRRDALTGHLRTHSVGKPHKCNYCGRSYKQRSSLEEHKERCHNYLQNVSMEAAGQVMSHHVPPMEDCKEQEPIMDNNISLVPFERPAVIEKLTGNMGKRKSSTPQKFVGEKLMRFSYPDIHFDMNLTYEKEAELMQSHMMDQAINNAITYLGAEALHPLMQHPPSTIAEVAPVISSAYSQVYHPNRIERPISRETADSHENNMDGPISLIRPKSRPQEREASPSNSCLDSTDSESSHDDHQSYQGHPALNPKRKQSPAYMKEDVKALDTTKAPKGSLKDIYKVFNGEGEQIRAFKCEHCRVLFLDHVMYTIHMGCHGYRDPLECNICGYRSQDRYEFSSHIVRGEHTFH
T2 sequence (Q96SW2 whole entry): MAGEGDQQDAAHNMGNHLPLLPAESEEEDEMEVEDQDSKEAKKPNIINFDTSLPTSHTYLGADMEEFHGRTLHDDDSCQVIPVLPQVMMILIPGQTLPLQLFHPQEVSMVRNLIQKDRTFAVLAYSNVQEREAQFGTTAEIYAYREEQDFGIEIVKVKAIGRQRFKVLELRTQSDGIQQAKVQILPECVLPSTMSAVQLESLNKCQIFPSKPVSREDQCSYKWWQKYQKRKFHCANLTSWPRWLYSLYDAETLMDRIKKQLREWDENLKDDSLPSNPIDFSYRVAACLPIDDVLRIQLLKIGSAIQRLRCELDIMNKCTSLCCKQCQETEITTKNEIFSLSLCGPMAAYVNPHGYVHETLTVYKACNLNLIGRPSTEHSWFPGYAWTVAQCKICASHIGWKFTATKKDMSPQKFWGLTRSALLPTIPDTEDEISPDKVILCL
T2 sequence (Q16531 whole entry partner): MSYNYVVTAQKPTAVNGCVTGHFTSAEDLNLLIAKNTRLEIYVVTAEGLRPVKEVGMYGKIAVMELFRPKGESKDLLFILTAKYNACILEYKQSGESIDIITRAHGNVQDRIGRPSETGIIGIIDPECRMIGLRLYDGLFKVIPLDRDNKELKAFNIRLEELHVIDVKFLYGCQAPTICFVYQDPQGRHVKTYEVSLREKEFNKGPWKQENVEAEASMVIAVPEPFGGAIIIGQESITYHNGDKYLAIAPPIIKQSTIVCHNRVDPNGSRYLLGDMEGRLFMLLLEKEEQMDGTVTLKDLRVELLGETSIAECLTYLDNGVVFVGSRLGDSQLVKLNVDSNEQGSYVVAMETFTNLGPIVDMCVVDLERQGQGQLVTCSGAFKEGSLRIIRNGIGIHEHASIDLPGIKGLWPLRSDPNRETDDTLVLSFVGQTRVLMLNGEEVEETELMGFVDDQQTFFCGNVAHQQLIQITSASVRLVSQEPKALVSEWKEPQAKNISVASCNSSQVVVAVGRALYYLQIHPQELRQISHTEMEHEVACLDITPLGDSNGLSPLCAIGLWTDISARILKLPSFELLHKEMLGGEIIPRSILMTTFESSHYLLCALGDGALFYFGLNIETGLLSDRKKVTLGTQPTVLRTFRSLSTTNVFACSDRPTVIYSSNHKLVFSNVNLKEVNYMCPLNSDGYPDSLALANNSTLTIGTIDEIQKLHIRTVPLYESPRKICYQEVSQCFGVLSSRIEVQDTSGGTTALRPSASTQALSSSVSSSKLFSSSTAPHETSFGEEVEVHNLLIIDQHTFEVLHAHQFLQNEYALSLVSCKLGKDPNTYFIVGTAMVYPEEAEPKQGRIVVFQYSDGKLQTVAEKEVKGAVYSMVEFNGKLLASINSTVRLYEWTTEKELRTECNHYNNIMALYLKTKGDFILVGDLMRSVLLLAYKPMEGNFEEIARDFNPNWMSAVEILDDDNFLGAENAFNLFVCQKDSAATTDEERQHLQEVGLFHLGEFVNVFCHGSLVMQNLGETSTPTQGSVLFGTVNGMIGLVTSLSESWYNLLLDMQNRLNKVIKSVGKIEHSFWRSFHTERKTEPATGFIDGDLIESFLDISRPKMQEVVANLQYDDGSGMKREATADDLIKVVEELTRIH
The assay is described as above. Type of assay: cell-based. To be noted: @ 1 μM, HEK 293T IKZF2-mNeonGreen reporter, 24 hours incubation; for inhibition at 1 µM: HEK-293T, 24 h. In outline:
as §1

The next assay concerns the target T3, IKZF1 (Ikaros) (Homo sapiens, UniProt Q13422).
T3 construct: mScarlet (behind P2A) (C, cleaved yes); expressed in transfected cells
Description: IKZF1 reporter degradation assay (HEK 293T IKZF1-mNeonGreen reporter cell line). The assay is classed as cell-based. Conditions: HEK 293T IKZF1-mNeonGreen reporter, 24 hours incubation. A digest of the protocol: as §1

Assay [3] has as its target T4, human E3 ligase component cereblon (CRBN) (Homo sapiens, UniProt Q96SW2).
T4 construct: host or cells: HEK293T
Description: Cereblon (CRBN) target engagement, NanoBRET TE Intracellular E3 Ligase Assay in transfected HEK-293T cells. To be noted: read-out: CRBN Binding EC50. A digest of the protocol:
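HEK-293T cells transiently co-transfected with NanoLuc-CRBN (N-terminal NanoLuc) and DDB1 were dosed with CRBN tracer and an 11-point compound series (typically 10 μM to 100 pM) for 2 h at 37° C. BRET at 450/610 nm gave IC50 by four-parameter logistic fit.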
For orientation: Bioluminescence resonance energy transfer reports proximity on the nanometre scale.

Another assay addresses T5, IKZF3 (Aiolos) (Homo sapiens, UniProt Q9UKT9).
T5 construct: Leu-Asp junction (codons ctcgac before the linker); mScarlet (behind P2A) (C, cleaved yes); expressed in transfected cells
Description: IKZF3 reporter degradation assay (HEK 293T IKZF3-mNeonGreen reporter cell line). Type of assay: cell-based. To be noted: HEK 293T IKZF3-mNeonGreen reporter, 24 hours incubation. In outline: as §1

T1 sequence (Q9UKS7 whole entry): as the sequence (Q9UKS7 whole entry) above
T1 sequence (Q96SW2 whole entry, further chain): as the sequence (Q96SW2 whole entry) above
T1 sequence (Q16531 whole entry partner): as the sequence (Q16531 whole entry partner) above
T5 sequence (Q96SW2 whole entry partner): as the sequence (Q96SW2 whole entry) above
T5 sequence (Q16531 whole entry partner): as the sequence (Q16531 whole entry partner) above
T5 sequence (Q9UKT9 whole entry): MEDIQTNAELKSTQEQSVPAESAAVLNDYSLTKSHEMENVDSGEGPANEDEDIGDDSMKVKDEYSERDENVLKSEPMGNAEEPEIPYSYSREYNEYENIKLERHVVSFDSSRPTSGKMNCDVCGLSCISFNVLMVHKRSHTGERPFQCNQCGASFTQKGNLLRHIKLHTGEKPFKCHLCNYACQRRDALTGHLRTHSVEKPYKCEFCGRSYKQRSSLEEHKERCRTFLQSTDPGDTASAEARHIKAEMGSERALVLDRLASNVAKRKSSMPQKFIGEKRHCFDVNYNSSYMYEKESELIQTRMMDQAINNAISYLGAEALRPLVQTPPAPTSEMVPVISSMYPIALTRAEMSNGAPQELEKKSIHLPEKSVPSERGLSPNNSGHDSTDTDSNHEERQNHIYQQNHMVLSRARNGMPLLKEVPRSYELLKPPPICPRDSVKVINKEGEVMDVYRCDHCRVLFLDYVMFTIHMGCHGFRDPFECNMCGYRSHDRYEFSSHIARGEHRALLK
T3 sequence (Q96SW2 whole entry partner): as the sequence (Q96SW2 whole entry) above
T3 sequence (Q16531 whole entry partner): as the sequence (Q16531 whole entry partner) above
T3 sequence (Q13422 whole entry): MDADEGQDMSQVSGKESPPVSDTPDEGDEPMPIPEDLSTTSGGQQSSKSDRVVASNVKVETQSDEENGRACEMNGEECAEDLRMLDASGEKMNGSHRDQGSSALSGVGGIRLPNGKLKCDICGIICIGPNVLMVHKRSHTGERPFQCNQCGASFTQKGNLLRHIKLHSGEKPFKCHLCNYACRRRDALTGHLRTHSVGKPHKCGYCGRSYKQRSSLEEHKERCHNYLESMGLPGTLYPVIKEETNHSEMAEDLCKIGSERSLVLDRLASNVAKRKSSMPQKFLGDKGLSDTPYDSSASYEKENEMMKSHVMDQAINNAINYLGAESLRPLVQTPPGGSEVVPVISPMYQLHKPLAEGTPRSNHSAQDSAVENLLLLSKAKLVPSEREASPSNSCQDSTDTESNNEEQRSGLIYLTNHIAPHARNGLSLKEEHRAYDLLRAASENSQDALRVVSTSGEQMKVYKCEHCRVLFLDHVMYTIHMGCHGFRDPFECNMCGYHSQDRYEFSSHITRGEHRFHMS
T4 sequence (Q96SW2 whole entry): as the sequence (Q96SW2 whole entry) above
T4 sequence (Q16531 whole entry partner): as the sequence (Q16531 whole entry partner) above

By DC50 is commonly meant the concentration at which degradation of the target reaches its halfway point. High values mean degradation only at high concentration, low ones degradation at low concentration. For orientation: inhibition means the share of the control response that was lost under treatment. Higher therefore signals strong suppression. In general, EC50 refers to the concentration that produces a half-maximal response. For the compound `N#Cc1cc(C2CN([C@@H]3CCCC[C@@H]3Oc3ccc4c(c3)CN(C3CCC(=O)NC3=O)C4=O)C2)ccn1` (mixture of isomers) [Compound 179-B, Rac-4-(1-((cis)-2-((2-(2,6-dioxopiperidin-3-yl)-1-oxoisoindolin-5-yl)oxy)cyclohexyl)azetidin-3-yl)picolinonitrile], the half-maximal degradation concentration (DC50) was 46 nM at IKZF2 (Helios) [1], more than 30000 nM at IKZF1 (Ikaros) and more than 30000 nM at IKZF3 (Aiolos). On IKZF2 (Helios) [2], this compound gave an inhibition at 1 µM of 68.6%. Besides, in assay [3], the EC50 was 39 nM.

As for `O=C1CCC(N2Cc3cc(OC4CCC[C@@H]4N4CC(c5cccnc5)C4)ccc3C2=O)C(=O)N1` (mixture of isomers) [Compound 207-B, Rac-3-(1-oxo-5-(((cis)-2-(3-(pyridin-3-yl)azetidin-1-yl)cyclopentyl)oxy)isoindolin-2-yl)piperidine-2,6-dione], the DC50 on IKZF2 (Helios) [1] was 1470 nM; at IKZF1 (Ikaros) it was more than 30000 nM; at IKZF3 (Aiolos), more than 30000 nM. For the same compound, the inhibition at 1 µM at IKZF2 (Helios) [2] was 24.8%. The concentration for a half-maximal effect (EC50) in assay [3] came to 104 nM.

For the compound `Cc1ccnc(C2CN([C@H]3CCCC[C@@H]3Oc3ccc4c(c3)CN(C3CCC(=O)NC3=O)C4=O)C2)n1` (mixture of isomers) [Compound 188-B, Rac-3-(5-(((trans)-2-(3-(4-methylpyrimidin-2-yl)azetidin-1-yl)cyclohexyl)oxy)-1-oxoisoindolin-2-yl)piperidine-2,6-dione], the DC50 on IKZF2 (Helios) [1] is 240 nM; on IKZF1 (Ikaros), more than 30000 nM; at IKZF3 (Aiolos), more than 30000 nM. At IKZF2 (Helios) [2], this compound gave an inhibition at 1 µM of 42%. Also, in assay [3], the EC50 is 44 nM.

Take `Cc1cnc(C2CN([C@H]3CCCC[C@H]3Oc3ccc4c(c3)CN(C3CCC(=O)NC3=O)C4=O)C2)nc1` (mixture of isomers) [Compound 184-B, Rac-3-(5-(((cis)-2-(3-(5-methylpyrimidin-2-yl)azetidin-1-yl)cyclohexyl)oxy)-1-oxoisoindolin-2-yl)piperidine-2,6-dione]: the DC50 at IKZF2 (Helios) [1] is 21 nM; at IKZF1 (Ikaros), more than 30000 nM; on IKZF3 (Aiolos), more than 30000 nM. The compound further registered an inhibition at 1 µM against IKZF2 (Helios) [2] of 79.6%. Besides, the EC50 in assay [3] was determined as 17 nM.

For the compound `O=C1CCC(N2Cc3cc(OC4CCCCC4N4CC(c5ncc(C6CC6)cn5)C4)ccc3C2=O)C(=O)N1` (stereo not shown) [Compound 177-B, 3-(5-((2-(3-(5-cyclopropylpyrimidin-2-yl)azetidin-1-yl)cyclohexyl)oxy)-1-oxoisoindolin-2-yl)piperidine-2,6-dione], the DC50 on IKZF2 (Helios) [1] is 4 nM; on IKZF1 (Ikaros), more than 30000 nM; at IKZF3 (Aiolos) it was more than 30000 nM. In addition, on IKZF2 (Helios) [2], 1 µM produced 70.3% inhibition. Further, the EC50 in assay [3] was 2 nM.

Regarding `O=C1CCC(N2Cc3cc(O[C@@H]4CCCC[C@H]4N4CC(c5ccc(Cl)cn5)C4)ccc3C2=O)C(=O)N1` (mixture of isomers) [Compound 163-B, Rac-3-(5-(((trans)-2-(3-(5-chloropyridin-2-yl)azetidin-1-yl)cyclohexyl)oxy)-1-oxoisoindolin-2-yl)piperidine-2,6-dione], the DC50 was 11 nM on IKZF2 (Helios) [1], more than 30000 nM at IKZF1 (Ikaros) and more than 30000 nM on IKZF3 (Aiolos). The inhibition at 1 µM on IKZF2 (Helios) [2] is 71.5%. In assay [3], the EC50 turned out to be 11 nM.

`O=C1CCC(N2Cc3cc(O[C@H]4CCCC[C@@H]4N4CC(c5ccc(C(F)(F)F)cn5)C4)ccc3C2=O)C(=O)N1` (mixture of isomers) [Compound 192-B, Rac-3-(1-oxo-5-(((trans)-2-(3-(5-(trifluoromethyl)pyridin-2-yl)azetidin-1-yl)cyclohexyl)oxy)isoindolin-2-yl)piperidine-2,6-dione]: the DC50 at IKZF2 (Helios) [1] is 123 nM; at IKZF1 (Ikaros) it was more than 30000 nM; on IKZF3 (Aiolos) it was more than 30000 nM. In addition, 1 µM produced 25.6% inhibition on IKZF2 (Helios) [2]. For the same compound, the 50% effective concentration (EC50) in assay [3] stood at 7 nM.

Take `COc1cc(C2CN(C3CCCC3Oc3ccc4c(c3)CN(C3CCC(=O)NC3=O)C4=O)C2)ccn1` (stereo not shown) [Compound 170-B, 3-(5-((2-(3-(2-methoxypyridin-4-yl)azetidin-1-yl)cyclopentyl)oxy)-1-oxoisoindolin-2-yl)piperidine-2,6-dione]: the DC50 at IKZF2 (Helios) [1] was 66 nM; at IKZF1 (Ikaros), more than 30000 nM; at IKZF3 (Aiolos) it was more than 30000 nM. This compound returned an inhibition at 1 µM at IKZF2 (Helios) [2] of 54.6%. Further, in assay [3], the EC50 came out at 109 nM.

With `O=C1CCC(N2Cc3cc(O[C@@H]4CCCC[C@@H]4N4CC(c5ccc(C(F)(F)F)nc5)C4)ccc3C2=O)C(=O)N1` (mixture of isomers) [Compound 183-B, Rac-3-(1-oxo-5-(((cis)-2-(3-(6-(trifluoromethyl)pyridin-3-yl)azetidin-1-yl)cyclohexyl)oxy)isoindolin-2-yl)piperidine-2,6-dione], the DC50 is 10 nM at IKZF2 (Helios) [1], more than 30000 nM at IKZF1 (Ikaros) and more than 30000 nM at IKZF3 (Aiolos). Besides, the inhibition at 1 µM at IKZF2 (Helios) [2] was found to be 81.3%. The EC50 in assay [3] came to 15 nM.

`O=C1CCC(N2Cc3cc(O[C@H]4CCCC[C@@H]4N4CC(c5ccncc5F)C4)ccc3C2=O)C(=O)N1` (mixture of isomers) [Compound 167-B, Rac-3-(5-(((trans)-2-(3-(3-fluoropyridin-4-yl)azetidin-1-yl)cyclohexyl)oxy)-1-oxoisoindolin-2-yl)piperidine-2,6-dione]: the DC50 is 241 nM at IKZF2 (Helios) [1], more than 30000 nM at IKZF1 (Ikaros) and more than 30000 nM at IKZF3 (Aiolos). Moreover, the inhibition at 1 µM against IKZF2 (Helios) [2] was 28.8%. The EC50 in assay [3] was determined as 74 nM.

Consider `Cc1ccnc(C2CN([C@H]3CCCC[C@H]3Oc3ccc4c(c3)CN(C3CCC(=O)NC3=O)C4=O)C2)n1` (mixture of isomers) [Compound 185-B, Rac-3-(5-(((cis)-2-(3-(4-methylpyrimidin-2-yl)azetidin-1-yl)cyclohexyl)oxy)-1-oxoisoindolin-2-yl)piperidine-2,6-dione], for which the DC50 on IKZF2 (Helios) [1] is 21 nM; on IKZF1 (Ikaros), more than 30000 nM; on IKZF3 (Aiolos) it was more than 30000 nM. The compound also had an inhibition at 1 µM on IKZF2 (Helios) [2] of 80.3%. The EC50 in assay [3] came out at 30 nM.

In the case of `O=C1CCC(N2Cc3cc(OC4CCCCC4N4CC(c5cncnc5)C4)ccc3C2=O)C(=O)N1` (stereo not shown) [Compound 212-B, 3-(1-oxo-5-((2-(3-(pyrimidin-5-yl)azetidin-1-yl)cyclohexyl)oxy)isoindolin-2-yl)piperidine-2,6-dione], the figures for the DC50 on IKZF2 (Helios) [1], at IKZF1 (Ikaros) and on IKZF3 (Aiolos) were 425 nM, more than 30000 nM and more than 30000 nM, respectively. For the same compound, the inhibition at 1 µM on IKZF2 (Helios) [2] is 20.3%. For the same compound, in assay [3], the EC50 was 57 nM.

In the case of `O=C1CCC(N2Cc3cc(O[C@@H]4CCC[C@@H]4N4CC(c5ccnc6ccccc56)C4)ccc3C2=O)C(=O)N1` (stereo partly drawn) [Compound 194-B, 3-(1-oxo-5-(((1R,2S)-2-(3-(quinolin-4-yl)azetidin-1-yl)cyclopentyl)oxy)isoindolin-2-yl)piperidine-2,6-dione], the DC50 on IKZF2 (Helios) [1] was 7 nM; on IKZF1 (Ikaros) it was more than 30000 nM; on IKZF3 (Aiolos) it was 283 nM. Besides, the inhibition at 1 µM against IKZF2 (Helios) [2] worked out at 79.8%; against IKZF3 (Aiolos) (HEK-293T, 24 h, @ 1 μM) it was 26.6%. Also, in assay [3], the 50% effective concentration (EC50) is 17 nM.

Take `O=C1CCC(N2Cc3cc(O[C@H]4CCCC[C@H]4N4CC(c5ccncc5)C4)ccc3C2=O)C(=O)N1` (single isomer, unassigned) [Compound 86-B]: the DC50 at IKZF2 (Helios) [1] is 189 nM; on IKZF1 (Ikaros) it was more than 30000 nM. For the same compound, the “IKZF2 % Degradation @ 1 μM” value on IKZF2 (Helios) [2] worked out at 22.5%. Moreover, the EC50 in assay [3] was 76 nM.
